Results on two compounds are retold here after article PMC3898987 (Bioorganic & Medicinal Chemistry, 2013).

The term IC50 denotes the concentration needed to halve the response being measured. Read a high IC50 as weaker potency. As a reminder, the Kd is the constant that tells how readily two partners part at equilibrium.

Where a chain is given by its changes, count along the chain named.

Test [1] deals with T1, 5-HT3AB receptor, 5-HT3B subunit H73A (Homo sapiens, UniProt O95264+P46098, H66A).
T1 sequence (P46098 24-478): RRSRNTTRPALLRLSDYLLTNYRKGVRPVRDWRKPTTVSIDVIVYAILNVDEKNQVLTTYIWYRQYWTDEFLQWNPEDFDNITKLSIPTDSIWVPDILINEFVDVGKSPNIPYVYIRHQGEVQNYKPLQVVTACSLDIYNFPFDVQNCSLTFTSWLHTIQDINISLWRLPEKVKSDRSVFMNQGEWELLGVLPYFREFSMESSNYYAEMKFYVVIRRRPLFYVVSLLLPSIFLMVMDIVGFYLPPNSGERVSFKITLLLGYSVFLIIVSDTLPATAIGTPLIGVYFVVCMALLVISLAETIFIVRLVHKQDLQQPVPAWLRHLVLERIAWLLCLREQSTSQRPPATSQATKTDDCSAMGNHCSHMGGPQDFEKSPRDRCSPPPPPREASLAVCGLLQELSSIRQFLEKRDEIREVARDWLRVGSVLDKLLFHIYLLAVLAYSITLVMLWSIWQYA
T1 sequence (O95264 22-441 H66A): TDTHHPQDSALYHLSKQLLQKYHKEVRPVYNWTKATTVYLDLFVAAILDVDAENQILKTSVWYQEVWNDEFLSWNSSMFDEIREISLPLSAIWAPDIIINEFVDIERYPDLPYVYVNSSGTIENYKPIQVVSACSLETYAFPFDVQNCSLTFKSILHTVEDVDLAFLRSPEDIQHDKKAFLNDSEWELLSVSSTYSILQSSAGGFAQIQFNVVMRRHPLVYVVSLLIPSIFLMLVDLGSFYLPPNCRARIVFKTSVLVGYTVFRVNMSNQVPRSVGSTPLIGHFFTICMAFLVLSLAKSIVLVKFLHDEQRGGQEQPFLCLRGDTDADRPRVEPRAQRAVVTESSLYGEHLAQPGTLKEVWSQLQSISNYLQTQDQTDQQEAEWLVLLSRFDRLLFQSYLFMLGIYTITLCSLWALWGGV
The test is described as follows: FlexStation membrane potential dye functional assay, HEK293 cells. As to conditions: 5-HT concentration-response, 5-HT3AB with 5-HT3B H73A.
Protocol: (§1) Human embryonic kidney (HEK) 293 cells were cultured on 90 mm tissue culture plates at 37 °C and 7% CO2 in a humidified atmosphere. They were grown in DMEM:F12 (Dulbecco’s Modified Eagle’s Medium/Nutrient Mix F12 (1:1)) with GlutaMAX I™ containing 10% fetal calf serum and passaged when confluent. […] For FlexStation assays, transfected cells were plated on 96-well plates and incubated 1–2 days before assay.
(§2) Fluorometric studies were undertaken using a FlexStation® (Molecular Devices, Sunnyvale, CA, USA) as previously described.[11]
(§3) Fluorescence was measured every 2 s for 200 s. […] Concentration–response and inhibition curves were obtained for each mutant, and the fluorescence values were normalized to the maximal response.

The target of test [2] is T2, 5-HT3AB receptor, 5-HT3B subunit F130A (Homo sapiens, UniProt O95264+P46098, F123A).
T2 sequence (P46098 24-478): T1 sequence (P46098 24-478)
T2 sequence (O95264 22-441 F123A): T1 sequence (O95264 22-441 H66A) with A45H, F102A
The description is as above. Conditions: 5-HT concentration-response, 5-HT3AB with 5-HT3B F130A.
Protocol: as §1, §2, §3

The target of test [3] is T3, 5-HT3AB receptor, 5-HT3B subunit W90C (Homo sapiens, UniProt O95264+P46098, W83C).
T3 sequence (P46098 24-478): T1 sequence (P46098 24-478)
T3 sequence (O95264 22-441 W83C): T1 sequence (O95264 22-441 H66A) with A45H, W62C
As to the kind of experiment: cell-based.
Protocol: as §1, §2, §3

Test [4] addresses T4, 5-HT3A receptor Y73S (Homo sapiens, UniProt P46098, Y68S).
T4 sequence (P46098 24-478 Y68S): T1 sequence (P46098 24-478) with Y45S
The test is described as follows: radioligand saturation binding, transfected HEK293 membranes. Conditions: [3H]-palonosetron saturation, 5-HT3A Y73S, 4 °C, 24 h.
Protocol: (§4) Human embryonic kidney (HEK) 293 cells were cultured on 90 mm tissue culture plates at 37 °C and 7% CO2 in a humidified atmosphere. They were grown in DMEM:F12 (Dulbecco’s Modified Eagle’s Medium/Nutrient Mix F12 (1:1)) with GlutaMAX I™ containing 10% fetal calf serum and passaged when confluent. For radioligand binding studies, cells in 90 mm dishes were transfected at 60–70% confluency using polyethyleneimine and incubated for 3–4 days before use. For FlexStation assays, transfected cells were plated on 96-well plates and incubated 1–2 days before assay. […]
(§5) Eight-point binding assays were performed to produce saturation binding curves. […] Radioactive counts were measured using a Beckman LS6000SC liquid scintillation counter (Fullerton, California, USA).
(§6) Data were analyzed by iterative curve fitting using GraphPad Prism v5 (San Diego, CA) according to the following equation: B=Bmax[L]^n/kdn+[L]^n where B is the amount of bound radioligand, Bmax is the maximum specific binding at equilibrium, [L] is the concentration of radioligand, Kd is the equilibrium dissociation constant of the radioligand, and n is the Hill coefficient.

Test [5] addresses T1, 5-HT3AB receptor, 5-HT3B subunit H73A. The test is described as above. As to conditions: [3H]-palonosetron saturation, 5-HT3AB with 5-HT3B H73A, 4 °C, 24 h.
Protocol: as §4, §5, §6

With `NCCc1c[nH]c2ccc(O)cc12` [5-HT, serotonin], the “Hill Coefficient” value in test [1] is reported as 1.6 ± 0.2; in test [2] it was 1.4 ± 0.2.
The compound `O=C1c2cccc3c2[C@H](CCC3)CN1[C@@H]1CN2CCC1CC2` [Palonosetron] showed an IC50 in test [3] of 370 ± 100 pM. In addition, the Kd in test [4] is 610 ± 110 pM; in test [5], 140 ± 20 pM.
